From ChEMBL document CHEMBL2413039, “Novel N-hydroxyfurylacrylamide-based histone deacetylase (HDAC) inhibitors with branched CAP group (Part 2)” (Bioorg Med Chem, 2013)
In brackets after ≈: the same amount, converted by molar mass.

Experiments:
[1] = Intrinsic aqueous solubility of the compound at pH 7.4 by Avdeef-Tsinman potentiometric titration method; format: physicochemical; conditions: read-out: Intrinsic_solubility
[2] = Partition coefficient, log D of the compound at pH 7.4 by Avdeef-Tsinman potentiometric titration method; format: physicochemical; conditions: octanol/water
HCT-116 = assay: cells; format: functional, cell-based; conditions: Homo sapiens, HCT-116, 48 h
A549 = assay: cells; format: functional, cell-based; conditions: Homo sapiens, A549, 48 h
HepG2 = assay: cells; format: functional, cell-based; conditions: Homo sapiens, HepG2, 48 h
PC-3 = assay: cells; format: functional, cell-based; conditions: Homo sapiens, PC-3, 48 h
Histone deacetylase = format: protein assay, Homo sapiens; conditions: hela
Histone deacetylase 1 = Histone deacetylase 1 (Homo sapiens, UniProt Q13547); assay: Inhibition of human recombinant HDAC1 using p53 residues 379-382 (RHKKAc) as substrate
Histone deacetylase 4 = Histone deacetylase 4 (Homo sapiens, UniProt P56524); assay: Inhibition of human recombinant HDAC4 using p53 residues 379-382 (RHKKAc) as substrate
[3] = biological target: T1, Protein deacetylase HDAC6 (Homo sapiens, UniProt Q9UBN7)
T1 sequence (Q9UBN7 whole entry): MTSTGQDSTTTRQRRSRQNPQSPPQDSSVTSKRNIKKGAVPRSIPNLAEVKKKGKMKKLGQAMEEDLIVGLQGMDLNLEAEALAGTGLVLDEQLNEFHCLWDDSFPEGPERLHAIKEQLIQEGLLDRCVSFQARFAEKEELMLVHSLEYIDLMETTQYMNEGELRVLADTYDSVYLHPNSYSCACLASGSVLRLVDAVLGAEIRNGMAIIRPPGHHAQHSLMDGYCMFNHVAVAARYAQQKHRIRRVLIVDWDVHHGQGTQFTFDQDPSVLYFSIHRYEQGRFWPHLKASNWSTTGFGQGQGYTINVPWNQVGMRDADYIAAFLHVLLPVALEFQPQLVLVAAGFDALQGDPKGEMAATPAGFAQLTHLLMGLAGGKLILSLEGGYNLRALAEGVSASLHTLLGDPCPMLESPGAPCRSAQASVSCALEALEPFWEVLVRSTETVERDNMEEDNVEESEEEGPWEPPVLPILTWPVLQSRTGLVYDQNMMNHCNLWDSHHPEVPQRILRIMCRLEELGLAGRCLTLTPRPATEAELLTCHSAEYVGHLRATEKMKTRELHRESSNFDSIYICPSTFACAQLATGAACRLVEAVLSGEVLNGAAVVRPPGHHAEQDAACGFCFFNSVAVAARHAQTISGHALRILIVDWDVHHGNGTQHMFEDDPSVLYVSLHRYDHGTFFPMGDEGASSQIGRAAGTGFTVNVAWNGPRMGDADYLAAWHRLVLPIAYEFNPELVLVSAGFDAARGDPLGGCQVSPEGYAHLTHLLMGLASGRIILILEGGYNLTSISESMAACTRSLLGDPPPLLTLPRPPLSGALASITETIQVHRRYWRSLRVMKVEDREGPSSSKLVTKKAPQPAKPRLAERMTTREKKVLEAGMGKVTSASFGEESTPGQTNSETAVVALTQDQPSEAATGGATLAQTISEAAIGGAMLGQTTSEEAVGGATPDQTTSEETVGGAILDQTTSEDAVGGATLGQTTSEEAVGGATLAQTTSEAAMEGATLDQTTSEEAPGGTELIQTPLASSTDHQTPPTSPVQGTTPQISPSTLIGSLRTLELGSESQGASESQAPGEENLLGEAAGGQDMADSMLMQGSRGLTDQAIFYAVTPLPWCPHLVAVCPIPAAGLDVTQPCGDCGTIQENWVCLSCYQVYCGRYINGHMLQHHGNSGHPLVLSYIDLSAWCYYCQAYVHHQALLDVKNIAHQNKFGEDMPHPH

Homo sapiens [4] = organism: Homo sapiens; assay: Selectivity ratio of IC50 for human recombinant HDAC4 to human recombinant HDAC6
Homo sapiens [5] = organism: Homo sapiens; assay: Selectivity ratio of IC50 for human recombinant HDAC1 to human recombinant HDAC6

Histone deacetylase 1, sequence (Q13547 whole entry, the tested form may be a part): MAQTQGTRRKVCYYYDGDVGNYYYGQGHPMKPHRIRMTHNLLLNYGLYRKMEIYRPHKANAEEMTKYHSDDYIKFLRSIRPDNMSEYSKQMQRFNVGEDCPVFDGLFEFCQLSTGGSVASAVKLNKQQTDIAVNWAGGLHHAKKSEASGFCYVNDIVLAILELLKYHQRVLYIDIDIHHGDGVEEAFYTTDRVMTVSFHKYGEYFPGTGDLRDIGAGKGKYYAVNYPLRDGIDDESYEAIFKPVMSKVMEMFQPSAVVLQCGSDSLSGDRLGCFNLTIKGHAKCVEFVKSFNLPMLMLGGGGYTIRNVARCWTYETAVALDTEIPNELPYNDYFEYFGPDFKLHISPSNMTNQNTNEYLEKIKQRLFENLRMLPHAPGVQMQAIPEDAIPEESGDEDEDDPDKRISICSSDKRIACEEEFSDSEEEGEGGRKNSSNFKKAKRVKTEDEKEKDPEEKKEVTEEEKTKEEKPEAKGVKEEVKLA
Histone deacetylase 4, sequence (P56524 whole entry, the tested form may be a part): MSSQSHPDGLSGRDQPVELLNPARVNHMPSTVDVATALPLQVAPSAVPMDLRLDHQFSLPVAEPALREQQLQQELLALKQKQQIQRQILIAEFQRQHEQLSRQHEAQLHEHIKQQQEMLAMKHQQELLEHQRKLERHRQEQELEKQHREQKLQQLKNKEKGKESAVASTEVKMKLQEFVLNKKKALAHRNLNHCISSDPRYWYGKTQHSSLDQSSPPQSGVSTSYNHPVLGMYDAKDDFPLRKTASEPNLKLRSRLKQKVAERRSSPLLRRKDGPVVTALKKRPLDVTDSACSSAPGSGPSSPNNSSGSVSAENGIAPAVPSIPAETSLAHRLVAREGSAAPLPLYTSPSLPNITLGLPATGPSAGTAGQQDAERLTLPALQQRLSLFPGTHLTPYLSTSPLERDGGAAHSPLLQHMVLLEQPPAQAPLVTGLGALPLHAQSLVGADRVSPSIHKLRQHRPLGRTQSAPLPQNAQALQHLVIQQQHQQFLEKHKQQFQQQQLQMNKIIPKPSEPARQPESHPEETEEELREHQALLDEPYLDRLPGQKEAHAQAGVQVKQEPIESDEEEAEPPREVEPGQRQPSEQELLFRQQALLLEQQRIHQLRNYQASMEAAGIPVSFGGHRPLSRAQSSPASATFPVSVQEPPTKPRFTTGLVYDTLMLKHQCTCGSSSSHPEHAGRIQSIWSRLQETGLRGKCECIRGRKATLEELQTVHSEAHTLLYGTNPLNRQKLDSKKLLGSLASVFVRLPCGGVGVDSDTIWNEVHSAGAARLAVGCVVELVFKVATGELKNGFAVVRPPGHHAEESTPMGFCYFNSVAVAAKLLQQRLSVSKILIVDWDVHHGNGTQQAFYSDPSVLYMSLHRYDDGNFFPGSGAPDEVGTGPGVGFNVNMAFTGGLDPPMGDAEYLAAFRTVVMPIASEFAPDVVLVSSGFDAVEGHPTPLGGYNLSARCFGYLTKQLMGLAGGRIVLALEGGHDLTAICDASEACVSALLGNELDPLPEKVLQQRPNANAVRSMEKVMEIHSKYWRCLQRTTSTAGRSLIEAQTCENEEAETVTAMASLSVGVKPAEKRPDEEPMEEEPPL

| SMILES | solubility [1] [µM] | logD [2] | EC50 (HCT-116) [µM] | EC50 (A549) [µM] | EC50 (HepG2) [µM] | EC50 (PC-3) [µM] | IC50 (Histone deacetylase) [µM] | IC50 (Histone deacetylase 1) [µM] | IC50 (Histone deacetylase 4) [µM] | IC50 [3] [µM] | Ratio IC50 (Homo sapiens [4]) | Ratio IC50 (Homo sapiens [5]) |
| --- | --- | --- | --- | --- | --- | --- | --- | --- | --- | --- | --- | --- |
| CCCCN(Cc1ccccc1)Cc1ccc(/C=C/C(=O)NO)o1 | 2300 (≈ 755 µg/mL) | 2.97 | 18.3 | 14.5 | 24.3 | 20.7 | 0.54 | 4.69 | 7.26 | 0.23 | 30.9 | 20 |
| O=C(/C=C/c1ccc(CN(CCO)Cc2ccccc2)o1)NO | 4000 (≈ 1270 µg/mL) | 1.62 | 12.1 | 97.2 | 128 | > 138 | 0.17 | 12.7 | 11.3 | 0.43 | 26.3 | 29.7 |
| CCCN(Cc1ccccc1)Cc1ccc(/C=C/C(=O)NO)o1 | 2800 (≈ 880 µg/mL) | 2.54 | 24.9 | 23.2 | 16.7 | 25 | 0.17 | 4.95 | 10.6 | 0.18 | 60 | 28.1 |
| CCN(CCc1ccc2c(c1)OCO2)Cc1ccc(/C=C/C(=O)NO)o1 |  |  | 66 | 84.7 | 81.7 | 66.5 | 2.31 | 7.88 | 20 | 0.48 | 41.9 | 16.6 |

Now those with a lower EC50 (HCT-116), led by results:

| solubility [1] [µM] | logD [2] | EC50 (HCT-116) [µM] | EC50 (A549) [µM] | EC50 (HepG2) [µM] | EC50 (PC-3) [µM] | IC50 (Histone deacetylase) [µM] | IC50 (Histone deacetylase 1) [µM] | IC50 (Histone deacetylase 4) [µM] | IC50 [3] [µM] | Ratio IC50 (Homo sapiens [4]) | Ratio IC50 (Homo sapiens [5]) | SMILES |
| --- | --- | --- | --- | --- | --- | --- | --- | --- | --- | --- | --- | --- |
| 1900 (≈ 731 µg/mL) | 5.28 | 0.47 | 6.59 | 3.96 | 42.3 | 2.55 |  |  |  |  |  | CCCCCCCCN(Cc1ccccc1)Cc1ccc(/C=C/C(=O)NO)o1 |
| 3000 (≈ 901 µg/mL) | 1.95 | 6.37 | 38.4 | > 167 | 104 | 0.13 | 5.44 | 10.7 | 0.25 | 42.3 | 21.4 | CCN(Cc1ccccc1)Cc1ccc(/C=C/C(=O)NO)o1 |
| 3110 (≈ 1220 µg/mL) | 1.8 | 4.02 | 8.36 | 22.6 | 15.9 | 0.089 |  |  |  |  |  | O=C(/C=C/c1ccc(CN(CCO)Cc2ccc(-c3ccccc3)cc2)o1)NO |
